These are literature values, as cited in patent publication US9511078B2, “Self-nanoemulsion of poorly soluble drugs” (Kashiv Pharma, LLC, priority 2013, dated 2016).

For data set [1] the following is noted: high-fat meal (57% fat, 825 calories).

As to `CC(=O)[C@H]1CC[C@H]2[C@@H]3CCC4=CC(=O)CC[C@]4(C)[C@H]3CC[C@]12C` [Progesterone, pregn-4-ene-3,20-dione], the “Log P” value is reported as 3.5.

Regarding `CC(=O)O[C@H]1CC[C@@]2(C)C(=CC[C@@H]3[C@@H]2CC[C@]2(C)C(c4cccnc4)=CC[C@@H]32)C1` [Abiraterone acetate], in data set [1], the “Abiraterone AUC0-∞, fold higher with food” value is ~10 fold and the “Abiraterone Cmax, fold higher with food” value was “approximately 17 fold”.

The Log P is a log measure of how a compound divides between an organic and an aqueous phase.
